# Measured values as given in patent US9745328B2, “Flap modulators” (JANSSEN PHARMACEUTICA NV, priority 2013, dated 2017).
# Structures can show the parent of a compound that is named as a salt.
# Target: human FLAP (Homo sapiens (Human), UniProt P20292)
# Assay: FLAP binding assay (HTRF format)
# Conditions: Table 6 (additional runs), human FLAP wild type
# Summary of the method: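 Averaged over two plates (duplicate wells per plate); output given as HTRF ratio.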
# Chain of human FLAP (P20292 whole entry): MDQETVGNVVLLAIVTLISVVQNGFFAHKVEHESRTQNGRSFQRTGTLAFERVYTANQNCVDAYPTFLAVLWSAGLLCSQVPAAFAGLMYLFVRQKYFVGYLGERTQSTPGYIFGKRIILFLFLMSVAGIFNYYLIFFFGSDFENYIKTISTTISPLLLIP
row,SMILES,Ki
1,"Nc1ncc(-c2ccc(-c3ccccc3S(=O)(=O)Nc3ccccc3)cc2F)cn1 [Example 285, 4′-(2-Aminopyrimidin-5-yl)-3′-fluoro-N-phenylbiphenyl-2-sulfonamide trifluoroacetic acid salt]",3.3 nM
2,"Cc1cccc(-c2ccc(-c3cnc(N)nc3)c(F)c2)c1S(=O)(=O)NC(C)(C)C [Example 287, 4′-(2-Aminopyrimidin-5-yl)-N-tert-butyl-3′-fluoro-3-methylbiphenyl-2-sulfonamide trifluoroacetic acid salt]",8.5 nM
3,"Nc1ncc(-c2ccc(-c3ccccc3S(=O)(=O)N[C@@H](c3ccccc3)C(F)(F)F)cc2F)cn1 [Example 292, 4′-(2-Aminopyrimidin-5-yl)-3′-fluoro-N-[(1S)-2,2,2-trifluoro-1-phenylethyl]biphenyl-2-sulfonamide trifluoroacetic acid salt]",9.9 nM
4,"CC(C)CNS(=O)(=O)c1ccccc1-c1ccc(-c2cnc(N)nc2)c(F)c1 [Example 294, 4′-(2-Aminopyrimidin-5-yl)-3′-fluoro-N-(2-methylpropyl)biphenyl-2-sulfonamide trifiuoroacetic acid salt]",2.4 nM
5,"CCNS(=O)(=O)c1ccccc1-c1ccc(-c2cnc(N)nc2)c(F)c1 [Example 295, 4′-(2-Aminopyrimidin-5-yl)-N-ethyl-3′-fluorobiphenyl-2-sulfonamide trifluoroacetic acid salt]",20 nM
6,"CC(C)(NS(=O)(=O)c1ccccc1-c1ccc(-c2cnc(N)nc2)c(F)c1)C(F)(F)F [Example 296, 4′-(2-Aminopyrimidin-5-yl)-3′-fluoro-N-(2,2,2-trifluoro-1,1-dimethylethyl)biphenyl-2-sulfonamide trifluoroacetic acid salt]",3.1 nM
7,"C[C@H](NS(=O)(=O)c1ccccc1-c1ccc(-c2cnc(N)nc2)c(F)c1)C(F)(F)F [Example 297, 4′-(2-Aminopyrimidin-5-yl)-3′-fluoro-N-[(1S)-2,2,2-trifluoro-1-methylethyl]biphenyl-2-sulfonamide trifluoroacetic acid salt]",3.2 nM
8,"Nc1ncc(-c2ccc(-c3ccccc3S(=O)(=O)N3CCCC3)cc2F)cn1 [Example 298, 5-[3-Fluoro-2′-(pyrrolidin-1-ylsulfonyl)biphenyl-4-yl]pyrimidin-2-amine trifluoroacetic acid salt]",80.6 nM
9,"CC(C)(C)NS(=O)(=O)c1ccccc1-c1ccc(-c2cnc(N)nc2)c(F)c1 [Example 305, 4′-(2-aminopyrimidin-5-yl)-N-(tert-butyl)-3′-fluoro[1,1′-biphenyl]-2-sulfonamide trifluoroacetic acid salt]",1.6 nM
10,"C[C@H](NS(=O)(=O)c1ccccc1-c1ccc(-c2cnc(N)nc2)c(F)c1)C(=O)OC(C)(C)C [Example 307, tert-Butyl N-{[4′-(2-aminopyrimidin-5-yl)-3′-fluorobiphenyl-2-yl]sulfonyl}-L-alaninate]",4.5 nM
11,"Nc1ncc(-c2ccc(-c3ccccc3S(=O)(=O)N3CC4(COC4)C3)cc2F)cn1 [Example 312, 5-(2′-(2-oxa-6-azaspiro[3.3]heptan-6-ylsulfonyl)-3-fluoro-[1,1′-biphenyl]-4-yl)pyrimidin-2-amine]",323 nM
12,"N#CC1CN(S(=O)(=O)c2ccccc2-c2ccc(-c3cnc(N)nc3)c(F)c2)C1 [Example 314, 1-((4′-(2-aminopyrimidin-5-yl)-3′-fluoro-[1,1′-biphenyl]-2-yl)sulfonyl)azetidine-3-carbonitrile]",88.8 nM
13,Nc1ncc(-c2ccc(-c3ccccc3S(=O)(=O)N3CC(O)(C(F)(F)F)C3)cc2F)cn1 [Example 315],1.3 nM
14,"Nc1ncc(-c2ccc(-c3ccccc3S(=O)(=O)Cc3nc(C4CC4)no3)cc2F)cn1 [Example 321, 5-(2′-{[(3-Cyclopropyl-1,2,4-oxadiazol-5-yl)methyl]sulfonyl}-3-fluorobiphenyl-4-yl)pyrimidin-2-amine]",505 nM
15,"CNS(=O)(=O)c1cc(C(F)(F)F)ccc1-c1ccc(-c2cnc(N)nc2)c(F)c1 [Example 325, 4′-(2-aminopyrimidin-5-yl)-3′-fluoro-N-methyl-4-(trifluoromethyl)biphenyl-2-sulfonamide]",4.7 nM
16,CCNS(=O)(=O)c1cc(C(F)(F)F)ccc1-c1ccc(-c2cnc(N)nc2)c(F)c1 [Example 327],1.8 nM
17,"Nc1ncc(-c2ccc(-c3ccccc3Sc3ccnc(N)n3)cc2F)cn1 [Example 335, 4-{[4′-(2-Aminopyrimidin-5-yl)-3′-fluorobiphenyl-2-yl]sulfanyl}pyrimidin-2-amine formate salt]",1.9 nM
18,CC(C)(C)NS(=O)(=O)c1ccccc1-c1ccc(-c2ccc(N)nc2)c(F)c1 [Example 342],1.8 nM
19,"CCN(CC)S(=O)(=O)c1ccccc1-c1ccc(-c2ccc(N)nc2)c(F)c1 [Example 343, 4′-(6-aminopyridin-3-yl)-N,N-diethyl-3′-fluoro-[1,1′-biphenyl]-2-sulfonamide]",4.3 nM
20,"Nc1ccc(-c2ccc(-c3ccccc3S(=O)(=O)NC3CCCCC3)cc2F)cn1 [Example 346, 4′-(6-Aminopyridin-3-yl)-N-cyclohexyl-3′-fluoro-[1,1′-biphenyl]-2-sulfonamide]",4.5 nM

row,SMILES,Ki
1,"CCC(C)(C)NS(=O)(=O)c1ccccc1-c1ccc(-c2ccc(N)nc2)c(F)c1 [Example 349, 4′-(6-aminopyridin-3-yl)-3′-fluoro-N-(tert-pentyl)-[1,1′-biphenyl]-2-sulfonamide]",0.9 nM
2,"CC(C)(NS(=O)(=O)c1ccccc1-c1ccc(-c2ccc(N)nc2)c(F)c1)C(F)(F)F [Example 350, 4′-(6-aminopyridin-3-yl)-3′-fluoro-N-(1,1,1-trifluoro-2-methylpropan-2-yl)-[1,1′-biphenyl]-2-sulfonamide]",2.4 nM
3,"CC1(NS(=O)(=O)c2ccccc2-c2ccc(-c3ccc(N)nc3)c(F)c2)CCC1 [Example 353, 4′-(6-aminopyridin-3-yl)-3′-fluoro-N-(1-methylcyclobutyl)-[1,1′-biphenyl]-2-sulfonamide]",1.4 nM
4,"CC(C)(C)OC(=O)N1CC(O)(CNS(=O)(=O)c2ccccc2-c2ccc(-c3ccc(N)nc3)c(F)c2)C1 [Example 357, tert-butyl 3-((4′-(6-aminopyridin-3-yl)-3′-fluoro-[1,1′-biphenyl]-2-ylsulfonamido)methyl)-3-hydroxyazetidine-1-carboxylate]",114 nM
5,Nc1ccc(-c2ccc(-c3ccccc3S(=O)(=O)N3CCC(CCO)CC3)cc2F)cn1 [Example 359],4.3 nM
6,"C[C@@H](CO)NS(=O)(=O)c1ccccc1-c1ccc(-c2cnc3[nH]ccc3c2)c(F)c1 [Example 362, 3′-Fluoro-N-[(1S)-2-hydroxy-1-methylethyl]-4′-(1H-pyrrolo[2,3-b]pyridin-5-yl)biphenyl-2-sulfonamide]",1.2 nM
7,"C[C@H](CO)NS(=O)(=O)c1ccccc1-c1ccc(-c2cnc3[nH]ccc3c2)c(F)c1 [Example 363, 3′-Fluoro-N-[(1R)-2-hydroxy-1-methylethyl]-4′-(1H-pyrrolo[2,3-b]pyridin-5-yl)biphenyl-2-sulfonamide]",0.6 nM
8,"O=C1NCC[C@@H]1NS(=O)(=O)c1ccccc1-c1ccc(-c2cnc3[nH]ccc3c2)c(F)c1 [Example 364, 3′-Fluoro-N-[(3S)-2-oxopyrrolidin-3-yl]-4′-(1H-pyrrolo[2,3-b]pyridin-5-yl)biphenyl-2-sulfonamide]",2.5 nM
9,"NS(=O)(=O)c1ccccc1-c1ccc(-c2cnc3[nH]ccc3c2)c(F)c1 [Example 368, 3′-Fluoro-4′-(1H-pyrrolo[2,3-b]pyridin 5-yl)biphenyl-2-sulfonamide]",13.2 nM
10,"CN(C)S(=O)(=O)c1ccccc1-c1ccc(-c2cnc3[nH]ccc3n2)c(F)c1 [Example 370, 3′-Fluoro-N,N-dimethyl-4′-(5H-pyrrolo[2,3-b]pyrazin-2-yl)biphenyl-2-sulfonamide]",1.9 nM
11,"CC(C)(C)NS(=O)(=O)c1ccccc1-c1ccc(-c2cnc3[nH]ccc3n2)c(F)c1 [Example 371, N-tert-Butyl-3′-fluoro-4′-(5H-pyrrolo[2,3-b]pyrazin-2-yl)biphenyl-2-sulfonamide]",0.7 nM
12,"O=S(=O)(c1ccccc1-c1ccc(-c2cnc3[nH]ccc3n2)c(F)c1)N1CCCCC1 [Example 374, 2-[3-Fluoro-2′-(piperidin-1-ylsulfonyl)biphenyl-4-yl)-5H-pyrrolo[2,3-b]pyrazine]",1.2 nM
13,"CNS(=O)(=O)c1ccccc1-c1ccc(-c2cnc3[nH]ccc3n2)c(F)c1 [Example 379, 3′-Fluoro-N-methyl-4′-(5H-pyrrolo[2,3-b]pyrazin-2-yl)biphenyl-2-sulfonamide]",1.3 nM
14,"O=S1(=O)CCN(S(=O)(=O)c2ccccc2-c2ccc(-c3cnc4[nH]ccc4n3)c(F)c2)CC1 [Example 382, 2-{2′-[(1,1-Dioxidothiomorpholin-4-yl)sulfonyl]-3-fluorobiphenyl-4-yl}-5H-pyrrolo[2,3-b]pyrazine]",0.5 nM
15,CSc1ccc(F)cc1-c1ccc(-c2cnc3[nH]ccc3n2)c(F)c1 [Example 383],7.9 nM
16,"CCSc1ccccc1-c1ccc(-c2cnc3[nH]ccc3n2)c(F)c1 [Example 384, 2-[2′-(Ethylsulfanyl)-3-fluorobiphenyl-4-yl]-5H-pyrrolo[2,3-b]pyrazine]",3.9 nM
17,"O=S(=O)(c1ccccc1-c1ccc(-c2cnc3c(c2)OCCN3)c(F)c1)N1CCCCC1 [Example 386, 7-[3-Fluoro-2′-(piperidin-1-ylsulfonyl)biphenyl-4-yl]-3,4-dihydro-2H-pyrido[3,2-b][1,4]oxazine]",1.8 nM
18,"C[C@@H](CO)NS(=O)(=O)c1ccccc1-c1ccc(-c2cnc3c(c2)OCCN3)c(F)c1 [Example 388, 4′-(3,4-Dihydro-2H-pyrido[3,2-b]l[1,4]oxazin-7-yl)-3′-fluoro-N-[(1S)-2-hydroxy-1-methylethyl]biphenyl-2-sulfonamide]",1.7 nM
19,"NC1CCN(S(=O)(=O)c2ccccc2-c2ccc(-c3cnc4c(c3)OCCN4)c(F)c2)CC1 [Example 389, 1-{[4′-(3,4-Dihydro-2H-pyrido[3,2-b][1,4]oxazin-7-yl)-3′-fluorobiphenyl-2-yl]sulfonyl}piperidin-4-amine]",13.1 nM

# Same assay, conditions: human FLAP wild type, a calculated value of 0.000 indicates Ki less than 1 nM
row,SMILES,Ki
1,"O=S1(=O)CCN(S(=O)(=O)c2ccccc2-c2ccc(-c3cnc4[nH]ccc4n3)c(F)c2)CC1 [Example 382, 2-{2′-[(1,1-Dioxidothiomorpholin-4-yl)sulfonyl]-3-fluorobiphenyl-4-yl}-5H-pyrrolo[2,3-b]pyrazine]",< 1 nM
